Experimental data from PubChem BioAssay AID2060900 (Molecular Pharmacology Branch, DTP, NCI, 2025).

Test system: 521955-158-R2-J5-PDC complex spheroids, viability
Assay: Anticancer human tumor 521955-158-R2-J5-PDC patient-derived pancreatic carcinoma cell line growth inhibition [RAS]
Details: for IC50: curve of first compound; for viability, T/C: stronger effect = lower value
Procedure, shortened: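 Tumour cells grown as complex spheroids with HUVEC endothelial cells and mesenchymal stem cells, treated with RAS pathway inhibitor combinations. Each agent spans half-log steps from near clinical Cmax, or 10 microM where Cmax is unknown.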

[1] = second compound 0.000949 µM, first compound 0.0316 µM
[2] = second compound 0.000949 µM, first compound 0.1 µM
[3] = second compound 0.000949 µM, first compound 0.316 µM
[4] = second compound 0.000949 µM, first compound 1 µM
[5] = second compound 0.000949 µM, first compound 3.16 µM
[6] = second compound 0.000949 µM, first compound 10 µM
[7] = second compound 0.003 µM, first compound 0.0316 µM
[8] = second compound 0.003 µM, first compound 0.1 µM
[9] = second compound 0.003 µM, first compound 0.316 µM
[10] = second compound 0.003 µM, first compound 1 µM
[11] = second compound 0.003 µM, first compound 3.16 µM
[12] = second compound 0.003 µM, first compound 10 µM
[13] = second compound 0.00949 µM, first compound 0.0316 µM
[14] = second compound 0.00949 µM, first compound 0.1 µM
[15] = second compound 0.00949 µM, first compound 0.316 µM
[16] = second compound 0.00949 µM, first compound 1 µM
[17] = second compound 0.00949 µM, first compound 3.16 µM
[18] = second compound 0.00949 µM, first compound 10 µM
[19] = second compound 0.03 µM, first compound 0.0316 µM
[20] = second compound 0.03 µM, first compound 0.1 µM
[21] = second compound 0.03 µM, first compound 0.316 µM
[22] = second compound 0.03 µM, first compound 1 µM
[23] = second compound 0.03 µM, first compound 3.16 µM
[24] = second compound 0.03 µM, first compound 10 µM
[25] = second compound 0.0949 µM, first compound 0.0316 µM
[26] = second compound 0.0949 µM, first compound 0.1 µM
[27] = second compound 0.0949 µM, first compound 0.316 µM
[28] = second compound 0.0949 µM, first compound 1 µM
[29] = second compound 0.0949 µM, first compound 3.16 µM
[30] = second compound 0.0949 µM, first compound 10 µM
[31] = second compound 0.3 µM, first compound 0.0316 µM
[32] = second compound 0.3 µM, first compound 0.1 µM
[33] = second compound 0.3 µM, first compound 0.316 µM
[34] = second compound 0.3 µM, first compound 1 µM
[35] = second compound 0.3 µM, first compound 3.16 µM
[36] = second compound 0.3 µM, first compound 10 µM
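Note: compound exposure lasted seven days before the viability read.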
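Throughout, for viability, T/C: spheroids also contain HUVEC endothelial cells and mesenchymal stem cells as stroma.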

Cc1nc(N2CCC3(CC2)COC(C)C3N)c(CO)nc1Sc1ccnc(N)c1Cl (stereo unspecified) + CCn1c(-c2cc(N3CCN(C)CC3)cnc2C(C)OC)c2c3cc(ccc31)-c1csc(n1)CC(NC(=O)C1CC1C)C(=O)N1CCCC(N1)C(=O)OCC(C)(C)C2
IC50 (second compound 0.000949 µM): < 31.6 nM
IC50 (second compound 0.003 µM): < 31.6 nM
IC50 (second compound 0.00949 µM): < 31.6 nM
IC50 (second compound 0.03 µM): < 31.6 nM
IC50 (second compound 0.0949 µM): < 31.6 nM
IC50 (second compound 0.3 µM): < 31.6 nM
viability, T/C [1]: 39.5%
viability, T/C [2]: 31%
viability, T/C [3]: 32.7%
viability, T/C [4]: 39.2%
viability, T/C [5]: 36.4%
viability, T/C [6]: 33.3%
viability, T/C [7]: 36.2%
viability, T/C [8]: 40.7%
viability, T/C [9]: 35.3%
viability, T/C [10]: 31.3%
viability, T/C [11]: 23.8%
viability, T/C [12]: 20.9%
viability, T/C [13]: 27.4%
viability, T/C [14]: 32.1%
viability, T/C [15]: 25%
viability, T/C [16]: 18.3%
viability, T/C [17]: 18.7%
viability, T/C [18]: 10.8%
viability, T/C [19]: 15.9%
viability, T/C [20]: 18.1%
viability, T/C [21]: 12.8%
viability, T/C [22]: 13.9%
viability, T/C [23]: 11.8%
viability, T/C [24]: 11.7%
viability, T/C [25]: 14.3%
viability, T/C [26]: 11%
viability, T/C [27]: 15.1%
viability, T/C [28]: 7.6%
viability, T/C [29]: 11.3%
viability, T/C [30]: 10.7%
viability, T/C [31]: 9.07%
viability, T/C [32]: 8.16%
viability, T/C [33]: 8.08%
viability, T/C [34]: 6.34%
viability, T/C [35]: 7.5%
viability, T/C [36]: 9.18%

NC1c2ccccc2OC12CCN(c1cnc3c(N4CCCc5ncccc54)n[nH]c3n1)CC2 (stereo unspecified) + CCn1c(-c2cc(N3CCN(C)CC3)cnc2C(C)OC)c2c3cc(ccc31)-c1csc(n1)CC(NC(=O)C1CC1C)C(=O)N1CCCC(N1)C(=O)OCC(C)(C)C2
IC50 (second compound 0.000949 µM): < 31.6 nM
IC50 (second compound 0.003 µM): < 31.6 nM
IC50 (second compound 0.00949 µM): < 31.6 nM
IC50 (second compound 0.03 µM): < 31.6 nM
IC50 (second compound 0.0949 µM): < 31.6 nM
IC50 (second compound 0.3 µM): < 31.6 nM
viability, T/C [1]: 36.8%
viability, T/C [2]: 33.9%
viability, T/C [3]: 36.1%
viability, T/C [4]: 20.8%
viability, T/C [5]: 18.5%
viability, T/C [6]: 13.4%
viability, T/C [7]: 35.4%
viability, T/C [8]: 28.6%
viability, T/C [9]: 21.4%
viability, T/C [10]: 19.2%
viability, T/C [11]: 13.3%
viability, T/C [12]: 5.75%
viability, T/C [13]: 24.2%
viability, T/C [14]: 16%
viability, T/C [15]: 14.4%
viability, T/C [16]: 11.2%
viability, T/C [17]: 6.08%
viability, T/C [18]: 3.95%
viability, T/C [19]: 10.4%
viability, T/C [20]: 8.87%
viability, T/C [21]: 10.9%
viability, T/C [22]: 8.91%
viability, T/C [23]: 7.26%
viability, T/C [24]: 4.07%
viability, T/C [25]: 11%
viability, T/C [26]: 9.54%
viability, T/C [27]: 11.1%
viability, T/C [28]: 5.55%
viability, T/C [29]: 8%
viability, T/C [30]: 3.91%
viability, T/C [31]: 10.1%
viability, T/C [32]: 7.36%
viability, T/C [33]: 9.18%
viability, T/C [34]: 8.17%
viability, T/C [35]: 9.16%
viability, T/C [36]: 3.2%

Nc1ccn(C2OC(CO)C(O)C2(F)F)c(=O)n1 (stereo unspecified) + CCn1c(-c2cc(N3CCN(C)CC3)cnc2C(C)OC)c2c3cc(ccc31)-c1csc(n1)CC(NC(=O)C1CC1C)C(=O)N1CCCC(N1)C(=O)OCC(C)(C)C2
IC50 (second compound 0.000949 µM): < 3.16 nM
IC50 (second compound 0.003 µM): < 3.16 nM
IC50 (second compound 0.00949 µM): < 3.16 nM
IC50 (second compound 0.03 µM): < 3.16 nM
IC50 (second compound 0.0949 µM): < 3.16 nM
IC50 (second compound 0.3 µM): < 3.16 nM
viability, T/C (second compound 0.000949 µM, first compound 0.00316 µM): 35.3%
viability, T/C (second compound 0.000949 µM, first compound 0.01 µM): 29%
viability, T/C [1]: 30.2%
viability, T/C [2]: 21%
viability, T/C [3]: 22.9%
viability, T/C [4]: 12%
viability, T/C (second compound 0.003 µM, first compound 0.00316 µM): 39%
viability, T/C (second compound 0.003 µM, first compound 0.01 µM): 33.4%
viability, T/C [7]: 36%
viability, T/C [8]: 28%
viability, T/C [9]: 20.5%
viability, T/C [10]: 17.2%
viability, T/C (second compound 0.00949 µM, first compound 0.00316 µM): 32.2%
viability, T/C (second compound 0.00949 µM, first compound 0.01 µM): 28.8%
viability, T/C [13]: 29.9%
viability, T/C [14]: 21.4%
viability, T/C [15]: 19.8%
viability, T/C [16]: 20.6%
viability, T/C (second compound 0.03 µM, first compound 0.00316 µM): 22.5%
viability, T/C (second compound 0.03 µM, first compound 0.01 µM): 20.6%
viability, T/C [19]: 18.3%
viability, T/C [20]: 19.4%
viability, T/C [21]: 13.7%
viability, T/C [22]: 12.7%
viability, T/C (second compound 0.0949 µM, first compound 0.00316 µM): 10.2%
viability, T/C (second compound 0.0949 µM, first compound 0.01 µM): 11.2%
viability, T/C [25]: 13.3%
viability, T/C [26]: 12.4%
viability, T/C [27]: 9.85%
viability, T/C [28]: 7.8%
viability, T/C (second compound 0.3 µM, first compound 0.00316 µM): 13.4%
viability, T/C (second compound 0.3 µM, first compound 0.01 µM): 9.3%
viability, T/C [31]: 11.2%
viability, T/C [32]: 11.1%
viability, T/C [33]: 9.17%
viability, T/C [34]: 11.8%
